Laboratory results: ChEMBL document CHEMBL1152101, “Boric acid effect ont he hydrolysis of 4-nitrophenyl 2,3-dihydroxybenzoate: mimic of borate inhibition of serine proteases” (Bioorg Med Chem Lett, 1993)

What was measured:
[1] = Tested for hydrolysis in presence of boric acid, dissociation constant was evaluated at the pH 9.5(Apparent inhibition constant); type: ADME
[2] = Tested for hydrolysis in presence of phenylboronic acid, rate constant was evaluated at the pH 9.5; type: ADME; conditions: buffer
[3] = Tested for hydrolysis in presence of boric acid by UV spectrophotometry, dissociation constant was evaluated at the pH < 8; type: ADME
[4] = Tested for hydrolysis in presence of boric acid, rate constant was evaluated at the pH 9.5; type: ADME; conditions: buffer
[5] = pKa value was determined; type: physicochemical
[6] = Tested for hydrolysis in presence of boric acid, rate constant was evaluated at the pH 8.5; type: ADME; conditions: buffer
[7] = Tested for hydrolysis in presence of boric acid, dissociation constant was evaluated at the pH 8.5(Apparent inhibition constant); type: ADME
[8] = biological target: T1, Chymotrypsinogen A (Bos taurus, UniProt P00766); assay: Tested for inhibition of hydrolysis in presence of alpha-chymotrypsin and […](Apparent inhibition constant)
[9] = biological target: T1, Chymotrypsinogen A; assay: Tested for inhibition of hydrolysis in presence of alpha-chymotrypsin and phenylboronic acid(Apparent inhibition constant)
[10] = Hydrolysis rate constant was determined; type: ADME
[11] = Tested for hydrolysis in presence of phenylboronic acid, dissociation constant was evaluated at the pH 9.5(Apparent inhibition constant); type: ADME

`O=C(Oc1ccc([N+](=O)[O-])cc1)c1cccc(O)c1O` showed a Ki [1] of 230 µM, a KB [2] of 0.000017 s⁻¹ and a KB [3] of 0.00005 s⁻¹. For the same molecule, the KB [4] was 0.000022 s⁻¹, the pKa [5] was 8.8 and the KB [6] was 0.000018 s⁻¹. For the same molecule, the Ki [7] was 380 µM, the Ki [8] was 40000 µM and the Ki [9] was 200 µM. The K1 [10] was 0.000033 s⁻¹, the K2 [10] was 0.00026 s⁻¹ and the Ki [11] was 250 µM.
